Experimental data: US11390626B2, “Pyrazolopyrimidine modulators of RAS GTPase” (Tosk, Inc., priority 2019, dated 2022)
Where “and” joins values, the source holds several entries; their conditions need not be identical. Equal entries are not always repeated. Entries after “also recorded” stand apart in the source; their conditions may differ. Where two headings read alike, the source gives them in different places.

Tests used:
non-phosphorylated ERK = assay: Non-phosphorylated ERK western blot in SW1990 cells; assay type: cell-based, human; conditions: data not shown
Protocol: (§1) Structure 1 decreased both phosphorylated AKT and phosphorylated ERK. Structure 1 had no effect on AKT or ERK (data not shown).
(§2) A method used to measure ERK and AKT is based on Welsch et al, Cell 168: 878-889 February 2017. SW1990 cells, growth driven by a G12D kRAS mutation and derived from human, pancreatic cancer cells, are plated in a 6-well plate at 1.5×10^6 cells per plate and grown overnight at 37° C. Media is replaced with serum-free media and the plate incubated an additional 24 hours. Media is replaced with media with or without compound and incubated for an additional 24 hours. EGF is added at a concentration of 10 ng/mL. After 15 minutes, cells are washed with ice cold PBS and lysed with RIPA buffer.
(§3) The lysate is processed by electrophoresis using a Mini-PROTEAN® gel mounted in a Mini-PROTEAN® Tetra Cell (cassette). Both the gel and the holding assembly (cassette) are purchased from BIORAD. The gel in the assembly is placed, electrode up, in the buffer tanks. The Tris/glycine/SDS buffer is added to both the inner buffer chamber (200 mL) and the outer buffer chamber (800 mL). […]
(§4) The membrane is placed into TTBS buffer containing SuperBlock T20 (Thermo Scientific) and incubated for 1 hour at room temperature. […] The anti pERK detected both pERK 1 and 2 (T202/Y204). […]

[1] = system: Drosophila melanogaster flies with human G12V kRAS expressed in the wing; assay: Fly screen: reversal of crinkled wing phenotype; assay type: in vivo
Source text: The Tosk approach uses Drosophila melanogaster flies as media for initial screening for RAS modulating compounds. Tosk has created a fruit fly with human kRAS G12V expressed in its wing. The mutant kRAS expressed in the fly wing appears functional, even though it operates in the presence of the other physiological systems present in the fly. The fly phenotype in the mutant fly is a crimped wing which can be reversed to a great extent if the fly is fed food enriched with an effective kRAS inhibitor. The fly kRAS suppressor screen can provide a more predictive model compared to conventional discovery methods because the kRAS is in its natural (i.e., not artificial/isolated/manipulated) environment anchored to the plasma membrane, positioned correctly, and surrounded by appropriate neighboring chemicals. Several reports have emphasized the importance of kRAS positioning and environment to realize protein activity.
2. Fly with Crinkled Wing Phenotype.
1. Production of Fly Food/Test Article Mix. A Biomek 2000 robotic arm is used to pipet 40 μL of a 10 mM DMSO solution of Test Article into a 35 mL polypropylene Drosophila fly vial (VWR 89092-728) containing 10 mL ETOH. A half teaspoon blue fly food (4-24, Carolina Biological Supply), is added and the tubes are vortexed and placed into a HT-4X GeneVac to remove the DMSO and ETOH. The tube is vortexed, 4 ml water added, and vortexed again. Control samples are tubes with fly food prepared with just 40 μL DMSO, no Test Article, or 40 μL of a DMSO solution containing 50 μM of the trametanib positive control. 2. Screen. Several hundred male G12V kRAS flies and several hundred GAL4 females are placed in a custom Plexiglas population cage (12″×12″×8″) made fly condo containing grape agar and yeast paste prepared using a published protocol. Embryos from the container are washed off the grape agar onto a sieve and re-suspended in an aqueous sucrose/salt/triton solution. An aliquot of this solution is analyzed using a dissecting microscope to determine the embryo concentration. The appropriate solution to deliver 150 embryos is then added to the fly food/Test article vials. The vial is capped with a cellulose fly bottle plug. […] The vials are incubated at 23° C. in a temperature-controlled room for 12 days. 3. Analysis. After 12 days, all flies in a vial are observed under a microscope following CO2 anesthesia for the number of phenotype reversals compared to the total number of viable flies. Cell culture testing is typically performed for any Test Article showing evidence of >25% phenotype reversal. The trametinib positive control provides reversal of the crimped/crinkled phenotype for 50-75% of the flies.
A library of over 16,000 distinct chemicals was purchased from ChemDiv, San Diego, Calif. All the compounds were evaluated in the fly screen described above for the ability to reverse the crinkled wing phenotype. […] One of the three compounds was Structure 1.

phosphorylated AKT = assay: Phosphorylated AKT western blot in SW1990 cells; assay type: cell-based, human; conditions: 24 hours with compound, EGF 10 ng/mL 15 minutes, FIG. 2
Protocol: as §1, §2, §3, §4

non-phosphorylated AKT = assay: Non-phosphorylated AKT western blot in SW1990 cells; assay type: cell-based, human; conditions: data not shown
Protocol: as §1, §2, §3, §4

MAP2K2 (MEK2) = MAP2K2 (MEK2) (Homo sapiens, UniProt P36507); assay: Protein kinase inhibition; assay type: biochemical; conditions: tested at 3 μM
Protocol: (§5) The exemplary compound was also tested at 3 μM for protein kinase inhibition against the following protein kinases: AKT1, AKT2, AKT3, EGF-R, EGF-R (L858R mutation), FRAP1, GSK3B, MAPK1 (ERK2), MAPK3 (ERK1), BRAF, BRAF V599E, MAP2K1 (MEK1), MAP2K2 (MEK2), PDK1, RAF1, PI3K C2A, PI3K C2B, P13K C3, PI3K 3A, PI3K CB, PI3K CD, and PI3K CG. […] The main downstream targets for kRAS are ERK (Samatar et al., Targeting RAS-ERK signaling in cancer: promises and challenges. Nat Rev Drug Discov. 2014; 13:928-42 and Martini et al., Ann Med. 2014; 46:372-83). kRAS activates ERK and AKT leading to phosphorylated ERK and phosphorylated AKT. A compound that suppresses kRAS activity is expected to lower phosphorylated ERK and phosphorylated AKT.

MAPK1 (ERK2) = MAPK1 (ERK2) (Homo sapiens, UniProt P28482); assay: Protein kinase inhibition; assay type: biochemical; conditions: tested at 3 μM
Protocol: as §5

PI3K CD = PI3K CD (Homo sapiens, UniProt O00329); assay: Protein kinase inhibition; assay type: biochemical; conditions: tested at 3 μM
Protocol: as §5

RAF1 = RAF1 (Homo sapiens, UniProt P04049); assay: Protein kinase inhibition; assay type: biochemical; conditions: tested at 3 μM
Protocol: as §5

AKT3 = AKT3 (Homo sapiens, UniProt Q9Y243); assay: Protein kinase inhibition; assay type: biochemical; conditions: tested at 3 μM
Protocol: as §5

GSK3B = GSK3B (Homo sapiens, UniProt P49841); assay: Protein kinase inhibition; assay type: biochemical; conditions: tested at 3 μM
Protocol: as §5

AKT2 = AKT2 (Homo sapiens, UniProt P31751); assay: Protein kinase inhibition; assay type: biochemical; conditions: tested at 3 μM
Protocol: as §5

P13K C3 = P13K C3 (Homo sapiens, UniProt Q8NEB9); assay: Protein kinase inhibition; assay type: biochemical; conditions: tested at 3 μM
Protocol: as §5

EGF-R = EGF-R (Homo sapiens, UniProt P00533); assay: Protein kinase inhibition; assay type: biochemical; conditions: tested at 3 μM
Protocol: as §5

FRAP1 = FRAP1 (Homo sapiens, UniProt P42345); assay: Protein kinase inhibition; assay type: biochemical; conditions: tested at 3 μM
Protocol: as §5

PI3K C2A = PI3K C2A (Homo sapiens, UniProt O00443); assay: Protein kinase inhibition; assay type: biochemical; conditions: tested at 3 μM
Protocol: as §5

PI3K CG = PI3K CG (Homo sapiens, UniProt P48736); assay: Protein kinase inhibition; assay type: biochemical; conditions: tested at 3 μM
Protocol: as §5

MAPK3 (ERK1) = MAPK3 (ERK1) (Homo sapiens, UniProt P27361); assay: Protein kinase inhibition; assay type: biochemical; conditions: tested at 3 μM
Protocol: as §5

PI3K C2B = PI3K C2B (Homo sapiens, UniProt O00750); assay: Protein kinase inhibition; assay type: biochemical; conditions: tested at 3 μM
Protocol: as §5

PI3K 3A = PI3K 3A (Homo sapiens, UniProt P42336); assay: Protein kinase inhibition; assay type: biochemical; conditions: tested at 3 μM
Protocol: as §5

PI3K CB = PI3K CB (Homo sapiens, UniProt P42338); assay: Protein kinase inhibition; assay type: biochemical; conditions: tested at 3 μM
Protocol: as §5

MAP2K1 (MEK1) = MAP2K1 (MEK1) (Homo sapiens, UniProt Q02750); assay: Protein kinase inhibition; assay type: biochemical; conditions: tested at 3 μM
Protocol: as §5

BRAF = BRAF (Homo sapiens, UniProt P15056); assay: Protein kinase inhibition; assay type: biochemical; conditions: tested at 3 μM
Protocol: as §5

PDK1 = PDK1 (Homo sapiens, UniProt O15530); assay: Protein kinase inhibition; assay type: biochemical; conditions: tested at 3 μM
Protocol: as §5

BRAF V599E = BRAF V599E (Homo sapiens, UniProt P15056, V600E); assay: Protein kinase inhibition; assay type: biochemical; conditions: tested at 3 μM
Protocol: as §5

AKT1 = AKT1 (Homo sapiens, UniProt P31749); assay: Protein kinase inhibition; assay type: biochemical; conditions: tested at 3 μM
Protocol: as §5

EGF-R (L858R mutation) = EGF-R (L858R mutation) (Homo sapiens, UniProt P00533, L858R); assay: Protein kinase inhibition; assay type: biochemical; conditions: tested at 3 μM
Protocol: as §5

[2] = system: SW620 human cancer cells (G12V kRAS); assay: Cytotoxicity assay (CellTiter-Glo 2.0, 72 hours); assay type: cell-based
Protocol: FIG. 1, Cytotoxicity of exemplary compound (Structure 1) on SW620 human cancer cells. The cytotoxicity of compounds of interest are tested against the human colon cancer cell line SW620 as described in the experimental section. SW620 cells express a mutant G12V kRAS. Compounds are incubated with cells for 72 hours and the assay developed using Cell Titer Glo 2.0. IC50 values are determined using GraphPad Prism4.
Structure 1 was assayed for inhibition of cell proliferation and killing cancer cells. Cytotoxicity assays were conducted according to the following general procedure. SW620, SW1990, etc, were all maintained in Leibowitz L15 media supplemented with 10% fetal bovine serum and 1% PenStrep and grown in a 37° C. incubator without supplemental CO2. Cells were plated into 96 well flat bottom plates (2 million/plate, ˜20,000/well, 200 μLmedia/well). The cells were allowed to settle and adhere to plate bottom overnight.
Compounds were diluted in media from a 10 mM stock solution starting at 50 μM, using 2-fold dilutions, in a column in a 96-well plate. Media was removed from the plate containing cells and replaced with media containing diluted compounds. Plates were incubated 72 hours at 37° C. with no supplementary CO2. […] Luminescence was read with a FLx800 (BioTek Instruments). […]

phosphorylated ERK = assay: Phosphorylated ERK western blot in SW1990 cells; assay type: cell-based, human; conditions: 24 hours with compound, EGF 10 ng/mL 15 minutes, FIG. 2
Protocol: as §1, §2, §3, §4

Chain of MAP2K2 (MEK2) (P36507 whole entry, species assumed): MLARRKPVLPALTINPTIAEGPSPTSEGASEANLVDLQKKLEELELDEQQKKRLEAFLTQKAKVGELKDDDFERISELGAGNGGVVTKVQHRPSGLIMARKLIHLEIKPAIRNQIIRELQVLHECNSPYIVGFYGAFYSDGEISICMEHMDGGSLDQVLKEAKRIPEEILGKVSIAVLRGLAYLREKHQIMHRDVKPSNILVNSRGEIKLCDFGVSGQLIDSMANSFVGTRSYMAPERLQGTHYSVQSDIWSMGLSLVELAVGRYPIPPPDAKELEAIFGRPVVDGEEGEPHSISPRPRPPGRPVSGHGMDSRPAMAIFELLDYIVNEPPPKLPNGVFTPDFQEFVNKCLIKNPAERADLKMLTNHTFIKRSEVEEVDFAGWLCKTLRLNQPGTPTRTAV
Chain of PI3K C2B (O00750 whole entry): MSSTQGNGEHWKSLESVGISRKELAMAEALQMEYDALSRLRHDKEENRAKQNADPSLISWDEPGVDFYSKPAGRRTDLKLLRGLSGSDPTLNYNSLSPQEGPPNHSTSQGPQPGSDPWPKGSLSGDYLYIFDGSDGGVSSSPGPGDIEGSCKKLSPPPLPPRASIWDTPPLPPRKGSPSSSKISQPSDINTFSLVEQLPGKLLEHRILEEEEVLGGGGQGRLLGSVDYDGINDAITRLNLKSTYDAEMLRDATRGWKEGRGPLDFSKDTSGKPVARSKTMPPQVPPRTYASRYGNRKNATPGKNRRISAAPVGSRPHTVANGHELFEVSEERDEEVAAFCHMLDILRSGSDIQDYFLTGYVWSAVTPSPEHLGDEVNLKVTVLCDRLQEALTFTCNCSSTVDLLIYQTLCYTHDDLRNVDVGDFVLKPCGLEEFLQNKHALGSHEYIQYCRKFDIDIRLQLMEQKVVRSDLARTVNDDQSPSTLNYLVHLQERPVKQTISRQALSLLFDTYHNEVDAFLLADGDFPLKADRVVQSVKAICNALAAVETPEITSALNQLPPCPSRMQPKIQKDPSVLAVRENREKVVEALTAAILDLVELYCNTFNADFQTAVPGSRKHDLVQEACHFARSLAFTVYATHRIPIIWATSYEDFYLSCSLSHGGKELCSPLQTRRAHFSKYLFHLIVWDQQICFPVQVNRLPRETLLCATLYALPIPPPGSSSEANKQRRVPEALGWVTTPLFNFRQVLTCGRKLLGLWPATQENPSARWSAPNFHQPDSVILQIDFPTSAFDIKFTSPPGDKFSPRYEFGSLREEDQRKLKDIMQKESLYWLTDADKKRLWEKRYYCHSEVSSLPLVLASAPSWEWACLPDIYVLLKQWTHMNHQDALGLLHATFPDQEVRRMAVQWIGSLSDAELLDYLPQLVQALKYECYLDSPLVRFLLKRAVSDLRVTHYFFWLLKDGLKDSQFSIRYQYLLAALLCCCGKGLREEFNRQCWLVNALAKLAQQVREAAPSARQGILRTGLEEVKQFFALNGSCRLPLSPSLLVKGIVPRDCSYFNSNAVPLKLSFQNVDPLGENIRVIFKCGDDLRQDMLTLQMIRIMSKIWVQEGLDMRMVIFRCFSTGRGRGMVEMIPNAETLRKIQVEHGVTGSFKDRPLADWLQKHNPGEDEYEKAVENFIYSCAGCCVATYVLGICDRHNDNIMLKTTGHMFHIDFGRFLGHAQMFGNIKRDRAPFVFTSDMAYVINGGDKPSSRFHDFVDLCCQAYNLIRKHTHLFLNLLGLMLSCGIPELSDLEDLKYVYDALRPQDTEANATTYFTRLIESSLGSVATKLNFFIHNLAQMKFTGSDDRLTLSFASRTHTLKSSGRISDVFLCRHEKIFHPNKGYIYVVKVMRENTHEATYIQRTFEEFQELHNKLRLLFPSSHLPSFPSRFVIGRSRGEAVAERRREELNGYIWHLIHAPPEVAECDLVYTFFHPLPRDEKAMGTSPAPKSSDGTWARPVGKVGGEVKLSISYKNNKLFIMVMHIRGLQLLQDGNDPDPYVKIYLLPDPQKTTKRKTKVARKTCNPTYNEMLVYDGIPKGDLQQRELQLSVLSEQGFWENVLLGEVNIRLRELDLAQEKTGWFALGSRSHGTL
Chain of PI3K C2A (O00443 whole entry): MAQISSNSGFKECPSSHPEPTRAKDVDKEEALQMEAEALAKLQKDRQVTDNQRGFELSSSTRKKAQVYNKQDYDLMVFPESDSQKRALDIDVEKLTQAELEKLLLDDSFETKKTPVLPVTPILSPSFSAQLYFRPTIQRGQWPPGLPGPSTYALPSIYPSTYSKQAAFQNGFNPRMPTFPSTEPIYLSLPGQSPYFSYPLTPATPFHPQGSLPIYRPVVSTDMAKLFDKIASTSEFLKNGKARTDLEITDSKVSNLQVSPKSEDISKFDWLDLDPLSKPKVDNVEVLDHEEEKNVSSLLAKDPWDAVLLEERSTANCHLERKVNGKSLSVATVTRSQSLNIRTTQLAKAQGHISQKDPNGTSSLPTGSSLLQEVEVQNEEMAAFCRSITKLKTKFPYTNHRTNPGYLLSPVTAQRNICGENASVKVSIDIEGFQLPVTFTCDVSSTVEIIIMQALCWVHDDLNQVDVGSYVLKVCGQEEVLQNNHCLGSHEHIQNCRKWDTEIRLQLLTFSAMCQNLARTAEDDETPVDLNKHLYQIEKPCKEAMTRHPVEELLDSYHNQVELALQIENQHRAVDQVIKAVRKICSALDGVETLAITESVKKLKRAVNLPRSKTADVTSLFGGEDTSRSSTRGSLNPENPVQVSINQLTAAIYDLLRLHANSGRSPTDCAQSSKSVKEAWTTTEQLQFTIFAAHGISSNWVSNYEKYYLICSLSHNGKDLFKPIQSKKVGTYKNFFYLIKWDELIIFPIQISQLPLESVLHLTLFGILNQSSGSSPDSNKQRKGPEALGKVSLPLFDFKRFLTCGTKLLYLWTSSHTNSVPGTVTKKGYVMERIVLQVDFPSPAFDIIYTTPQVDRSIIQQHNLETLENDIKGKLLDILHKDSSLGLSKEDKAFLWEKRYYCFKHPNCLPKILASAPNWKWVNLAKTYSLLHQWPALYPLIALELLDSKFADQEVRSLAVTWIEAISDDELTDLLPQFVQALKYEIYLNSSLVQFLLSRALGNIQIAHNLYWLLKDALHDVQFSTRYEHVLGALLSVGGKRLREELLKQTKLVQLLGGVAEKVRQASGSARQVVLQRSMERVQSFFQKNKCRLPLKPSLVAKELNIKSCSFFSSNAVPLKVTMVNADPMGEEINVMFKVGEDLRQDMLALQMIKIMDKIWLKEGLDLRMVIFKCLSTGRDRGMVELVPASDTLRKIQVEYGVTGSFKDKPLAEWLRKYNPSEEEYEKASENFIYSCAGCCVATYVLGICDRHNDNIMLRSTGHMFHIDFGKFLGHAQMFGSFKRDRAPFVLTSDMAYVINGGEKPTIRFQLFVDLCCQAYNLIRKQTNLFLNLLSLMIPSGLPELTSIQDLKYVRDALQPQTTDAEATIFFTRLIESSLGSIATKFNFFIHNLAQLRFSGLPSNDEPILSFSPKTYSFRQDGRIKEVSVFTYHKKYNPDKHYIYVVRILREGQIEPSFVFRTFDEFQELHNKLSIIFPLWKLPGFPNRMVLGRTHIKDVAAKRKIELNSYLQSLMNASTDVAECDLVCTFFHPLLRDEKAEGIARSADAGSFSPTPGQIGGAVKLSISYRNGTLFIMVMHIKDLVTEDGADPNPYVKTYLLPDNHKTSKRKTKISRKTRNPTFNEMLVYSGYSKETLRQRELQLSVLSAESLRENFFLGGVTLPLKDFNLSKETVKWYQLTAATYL
Chain of BRAF V599E (P15056 whole entry V600E): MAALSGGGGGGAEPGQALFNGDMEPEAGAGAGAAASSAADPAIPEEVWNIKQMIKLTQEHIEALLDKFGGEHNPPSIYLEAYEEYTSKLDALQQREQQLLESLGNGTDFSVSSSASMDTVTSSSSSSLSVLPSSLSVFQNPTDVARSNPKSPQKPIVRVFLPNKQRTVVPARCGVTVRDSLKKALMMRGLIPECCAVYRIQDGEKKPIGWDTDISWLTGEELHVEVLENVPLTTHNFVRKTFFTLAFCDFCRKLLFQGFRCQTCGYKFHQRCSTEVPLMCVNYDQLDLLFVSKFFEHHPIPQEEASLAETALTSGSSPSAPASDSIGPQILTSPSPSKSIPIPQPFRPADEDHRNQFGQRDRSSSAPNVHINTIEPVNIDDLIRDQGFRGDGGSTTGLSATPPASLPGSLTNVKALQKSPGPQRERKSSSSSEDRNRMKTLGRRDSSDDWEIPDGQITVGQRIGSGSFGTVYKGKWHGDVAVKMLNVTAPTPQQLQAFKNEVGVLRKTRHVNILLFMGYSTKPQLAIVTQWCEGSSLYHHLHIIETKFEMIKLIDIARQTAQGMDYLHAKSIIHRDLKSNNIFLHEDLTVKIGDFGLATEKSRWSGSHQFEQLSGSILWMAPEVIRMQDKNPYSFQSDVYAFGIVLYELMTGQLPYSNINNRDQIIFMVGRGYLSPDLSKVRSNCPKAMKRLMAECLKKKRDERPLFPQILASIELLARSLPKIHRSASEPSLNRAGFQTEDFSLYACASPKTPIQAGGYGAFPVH
Chain of MAPK1 (ERK2) (P28482 whole entry, species assumed): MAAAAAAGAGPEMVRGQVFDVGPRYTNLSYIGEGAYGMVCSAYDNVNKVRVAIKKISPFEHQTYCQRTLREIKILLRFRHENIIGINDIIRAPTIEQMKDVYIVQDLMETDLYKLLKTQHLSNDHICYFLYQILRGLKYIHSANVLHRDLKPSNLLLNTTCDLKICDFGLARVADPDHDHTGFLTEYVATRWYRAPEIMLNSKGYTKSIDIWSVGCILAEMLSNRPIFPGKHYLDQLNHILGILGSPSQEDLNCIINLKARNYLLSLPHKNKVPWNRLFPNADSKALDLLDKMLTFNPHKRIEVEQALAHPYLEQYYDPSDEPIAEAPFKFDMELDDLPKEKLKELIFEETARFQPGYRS
Chain of BRAF (P15056 whole entry, species assumed): as the sequence (P15056 whole entry V600E) above, with E600V counted along it

Compound: Cc1nc2c(-c3ccccc3)c(C)nn2c(NCc2ccccn2)c1Cc1ccccc1 [Structure 1]
- Effect on non-phosphorylated ERK (non-phosphorylated ERK): no effect; also recorded: without affecting
- Flies with Reversed Phenotype ([1]; Experiment 1, 20 μM in fly food): 75%
- Flies with phenotype reversals relative to positive control trametinib ([1]; Experiment 1, 75% versus 29%): over 2.5 fold
- Flies with Reversed Phenotype ([1]; Experiment 2, 20 μM in fly food): 58%
- Ability to reverse the crinkled wing phenotype in library screen ([1]; screen of over 16,000 ChemDiv compounds, ~100 μM in fly food, 12 days): reliably reversed the phenotype
- Effect on phosphorylated AKT (phosphorylated AKT): decreased; also recorded: suppressed
- Effect on non-phosphorylated AKT (non-phosphorylated AKT): no effect; also recorded: without affecting
- Kinase inhibitory activity, MAP2K2 (MEK2) (MAP2K2 (MEK2)): No kinase inhibitory activity
- Kinase inhibitory activity, MAPK1 (ERK2) (MAPK1 (ERK2)): No kinase inhibitory activity
- Kinase inhibitory activity, PI3K CD (PI3K CD): No kinase inhibitory activity
- Kinase inhibitory activity, RAF1 (RAF1): No kinase inhibitory activity
- Kinase inhibitory activity, AKT3 (AKT3): No kinase inhibitory activity
- Kinase inhibitory activity, GSK3B (GSK3B): No kinase inhibitory activity
- Kinase inhibitory activity, AKT2 (AKT2): No kinase inhibitory activity
- Kinase inhibitory activity, P13K C3 (P13K C3): No kinase inhibitory activity
- Kinase inhibitory activity, EGF-R (EGF-R): No kinase inhibitory activity
- Kinase inhibitory activity, FRAP1 (FRAP1): No kinase inhibitory activity
- Kinase inhibitory activity, PI3K C2A (PI3K C2A): No kinase inhibitory activity
- Kinase inhibitory activity, PI3K CG (PI3K CG): No kinase inhibitory activity
- Kinase inhibitory activity, MAPK3 (ERK1) (MAPK3 (ERK1)): No kinase inhibitory activity
- Kinase inhibitory activity, PI3K C2B (PI3K C2B): No kinase inhibitory activity
- Kinase inhibitory activity, PI3K 3A (PI3K 3A): No kinase inhibitory activity
- Kinase inhibitory activity, PI3K CB (PI3K CB): No kinase inhibitory activity
- Kinase inhibitory activity, MAP2K1 (MEK1) (MAP2K1 (MEK1)): No kinase inhibitory activity
- Kinase inhibitory activity, BRAF (BRAF): No kinase inhibitory activity
- Kinase inhibitory activity, PDK1 (PDK1): No kinase inhibitory activity
- Kinase inhibitory activity, BRAF V599E (BRAF V599E): No kinase inhibitory activity
- Kinase inhibitory activity, AKT1 (AKT1): No kinase inhibitory activity
- Kinase inhibitory activity, EGF-R (L858R mutation) (EGF-R (L858R mutation)): No kinase inhibitory activity
- IC50 ([2]; SW-620, Cell Titer Glo 2.0, read-out: IC50, cytotoxicity on SW620 human cancer cells (FIG. 1 legend)): 3.9 µM
- IC50 ([2]; SW-620, CellTiter-Glo 2.0, read-out: IC50 in the SW620 cells): 3.9 µM
- Effect on phosphorylated ERK (phosphorylated ERK): decreased; also recorded: suppressed

Compound: CC(=O)Nc1cccc(-n2c(=O)n(C3CC3)c(=O)c3c(Nc4ccc(I)cc4F)n(C)c(=O)c(C)c32)c1 [Trametinib]
- Reversal of the crimped/crinkled phenotype, share of the flies (positive control, general) ([1]; 40 μL of 50 μM DMSO solution in fly food, 12 days): 50-75%
- Flies with Reversed Phenotype ([1]; Experiment 1, 0.5 μM in fly food): 29%
- Flies with Reversed Phenotype ([1]; Experiment 2, 0.5 μM in fly food): 63% and 64%
- Flies with Reversed Phenotype ([1]; Experiment 2, 0.5 μM in fly food, listed as trametinib): 63% and 64%
